Source: US20250122219A1 (priority 2023, published 2025)

Assay: Cytotoxicity assay in MT-4 cells
Assay type: cell-based
Conditions: human; uninfected MT-4 cells, 5 days incubation, Cell Titer Glo; read-out: MT4 CC50
Protocol: Compounds were tested in a high-throughput 384-well assay format for their ability to inhibit the replication of HIV-1 (IIIB) in MT-4 cells. Compounds were serially diluted (1.3) in DMSO on 384-well polypropylene plates and further diluted 200-fold into complete RPMI media (10% FBS, 1% P/S) using the Biotek Micro Flow and Labcyte ECHO acoustic dispenser. Each plate contained up to 8 test compounds, with negative (No Drug Control) and 5 μM AZT positive controls. MT-4 cells were pre-infected with 10 μL of either RPMI (mock-infected) or a fresh 1:250 dilution of HIV-1 IIIB concentrated virus stock. Infected and uninfected MT-4 cells were further diluted in complete RPMI media and added to each plate using a Micro Flow dispenser. After 5 days incubation in a humidified and temperature controlled incubator (37° C.), Cell Titer Glo (Promega) was added to the assay plates and chemiluminescence read using an Envision plate-reader.
Assays were performed as above except uninfected MT-4 cells were added to each well containing test compound. In addition, […] puromycin was added to the last column of each assay plate to assess a base level of cytotoxicity.

Q: With `COC1=NO[C@@]2(CC[C@H](C)N3C[C@H]2n2cc(C(=O)NCc4ccc(F)cc4F)c(=O)c(OC(=O)C(C)C)c2C3=O)C1` [Example 48, (3′S,5S,7′R)-10′-((2,4-difluorobenzyl)carbamoyl)-3-methoxy-3′-methyl-1′,11′-dioxo-1′,4′,5′,11′-tetrahydro-3′H,4H,7′H-spiro[isoxazole-5,6′-[2,7]methanopyrido[1,2-a][1,4]diazonin]-12′-yl isobutyrate] as the compound, how does the CC50 at 5 days read?
A: 22.4 µM

Q: For `CC1=NO[C@@]2(CC[C@H](C)N3C[C@H]2n2cc(C(=O)NCc4ccc(F)cc4F)c(=O)c(OC(=O)C(C)C)c2C3=O)C1` [Example 49, (3′S,5S,7′R)-10′-((2,4-difluorobenzyl)carbamoyl)-3,3′-dimethyl-1′,11′-dioxo-1′,4′,5′,11′-tetrahydro-3′H,4H,7′H-spiro[isoxazole-5,6′-[2,7]methanopyrido[1,2-a][1,4]diazonin]-12′-yl isobutyrate], which CC50 at 5 days is on record?
A: 15.1 µM

Q: Which CC50 at 5 days does the source give for `CCC(C)C(=O)Oc1c2n(cc(C(=O)NCc3ccc(F)cc3F)c1=O)[C@@H]1CN(C2=O)[C@@H](C)CC[C@]12CC(OC)=NO2` (stereo partly drawn) [Example 50, (3′S,5S,7′R)-10′-((2,4-difluorobenzyl)carbamoyl)-3-methoxy-3′-methyl-1′,11′-dioxo-1′,4′,5′,11′-tetrahydro-3′H,4H,7′H-spiro[isoxazole-5,6′-[2,7]methanopyrido[1,2-a][1,4]diazonin]-12′-yl 2-methylbutanoate] here?
A: 21.7 µM

Q: With `CCC(C)C(=O)Oc1c2n(cc(C(=O)NCc3ccc(F)cc3F)c1=O)[C@@H]1CN(C2=O)[C@@H](C)CC[C@]12CC(C)=NO2` (stereo partly drawn) [Example 51, (3′S,5S,7′R)-10′-((2,4-difluorobenzyl)carbamoyl)-3,3′-dimethyl-1′,11′-dioxo-1′,4′,5′,11′-tetrahydro-3′H,4H,7′H-spiro[isoxazole-5,6′-[2,7]methanopyrido[1,2-a][1,4]diazonin]-12′-yl 2-methylbutanoate] as the compound, how does the CC50 at 5 days read?
A: 20 µM

Q: With `CC1=NO[C@@]2(CC[C@H](C)N3C[C@H]2n2cc(C(=O)NCc4ccc(F)cc4F)c(=O)c(OC(=O)CCCC(=O)O)c2C3=O)C1` [Example 72, 5-(((3′S,5S,7′R)-10′-((2,4-difluorobenzyl)carbamoyl)-3,3′-dimethyl-1′,11′-dioxo-1′,4′,5′,11′-tetrahydro-3′H,4H,7′H-spiro[isoxazole-5,6′-[2,7]methanopyrido[1,2-a][1,4]diazonin]-12′-yl)oxy)-5-oxopentanoic acid] as the compound, how does the CC50 at 5 days read?
A: 10.8 µM

Q: For `COC1=NO[C@@]2(CC[C@H](C)N3C[C@H]2n2cc(C(=O)NCc4ccc(F)cc4F)c(=O)c(OC(=O)CCCCCC(=O)O)c2C3=O)C1` [Example 74, 7-(((3′S,5S,7′R)-10′-((2,4-difluorobenzyl)carbamoyl)-3-methoxy-3′-methyl-1′,11′-dioxo-1′,4′,5′,11′-tetrahydro-3′H,4H,7′H-spiro[isoxazole-5,6′-[2,7]methanopyrido[1,2-a][1,4]diazonin]-12′-yl)oxy)-7-oxoheptanoic acid], which CC50 at 5 days is on record?
A: 26.3 µM

Q: Which CC50 at 5 days does the source give for `COC(=O)N[C@@H](C)C(=O)Oc1c2n(cc(C(=O)NCc3ccc(F)cc3F)c1=O)[C@@H]1CN(C2=O)[C@@H](C)CC[C@]12CC(OC)=NO2` [Example 78] here?
A: 16.2 µM

Q: Which CC50 at 5 days does the source give for `COC(=O)N[C@@H](C)C(=O)Oc1c2n(cc(C(=O)NCc3ccc(F)cc3F)c1=O)[C@@H]1CN(C2=O)[C@@H](C)CC[C@]12CC(C)=NO2` [Example 79] here?
A: 19.5 µM

Q: With `COC1=NO[C@@]2(CC[C@H](C)N3C[C@H]2n2cc(C(=O)NCc4ccc(F)cc4F)c(=O)c(OCOC(=O)C(C)C)c2C3=O)C1` [Example 108, (((3′S,5S,7′R)-10′-((2,4-difluorobenzyl)carbamoyl)-3-methoxy-3′-methyl-1′,11′-dioxo-1′,4′,5′,11′-tetrahydro-3′H,4H,7′H-spiro[isoxazole-5,6′-[2,7]methanopyrido[1,2-a][1,4]diazonin]-12′-yl)oxy)methyl isobutyrate] as the compound, how does the CC50 at 5 days read?
A: 21.7 µM
